Assay results from ChEMBL document CHEMBL5260860, “Simple monocyclic pyrimidine analogs as microtubule targeting agents binding to the colchicine site” (Bioorg Med Chem, 2023).
Calls of active or inactive are those of the source. The calls are words filed in the database; no cut-off is given here.

Tests used:
SK-OV-3 [1] = experiment: Antiproliferative activity against human SK-OV-3 cells overexpressing MDR-1-M6/6 assessed as inhibition of cell growth by SRB assay; assay type: functional, cell-based
SK-OV-3 [2] = experiment: Antiproliferative activity against wild type human SK-OV-3 cells assessed as inhibition of cell growth by SRB assay; assay type: functional, cell-based
HeLa [3] = experiment: Antiproliferative activity against human HeLa cells overexpressing betaIII-tubulin assessed as inhibition of cell growth by SRB assay; assay type: functional, cell-based
HeLa [4] = experiment: Antiproliferative activity against wild type human HeLa cells assessed as inhibition of cell growth by SRB assay; assay type: functional, cell-based
Tubulin (Bos taurus) = Tubulin (Bos taurus) (UniProt Q6B856+Q862L2+Q862F3); experiment: Displacement of [3H]colchicine from bovine brain tubulin at 5 uM incubated for 10 mins; assay type: tissue-based
[5] = Selectivity ratio of EC50 for induction of microtubule depolymerization in rat A10 cells to IC50 for antiproliferative activity against human MDA-MB-435 cells
[6] = Induction of microtubule depolymerization in rat A10 cells incubated for 18 hrs by indirect immunofluorescence analysis; assay type: cell-based
MDA-MB-435 [7] = experiment: Antiproliferative activity against human MDA-MB-435 cells assessed as inhibition of cell growth by SRB assay; assay type: functional, cell-based
MDA-MB-435 [8] = experiment: Antitumor activity against human MDA-MB-435 cells xenografted in nude mouse at 15 mg/kg, ip administered 3 times a week for 2 weeks and measured on day 14; assay type: functional, organism-based; details: time 14.0 day
MDA-MB-435 [9] = experiment: Antitumor activity against human MDA-MB-435 cells xenografted in nude mouse assessed as reduction in tumor volume at 15 mg/kg, ip administered 3 times a week for 2 weeks and measured on day 14; assay type: functional, organism-based; details: time 14.0 day
MDA-MB-435 [10] = experiment: Antitumor activity against human MDA-MB-435 cells xenografted in nude mouse at 50 mg/kg, ip administered 3 times a week for 2 weeks and measured on day 14; assay type: functional, organism-based; details: time 14.0 day
MDA-MB-435 [11] = experiment: Antitumor activity against human MDA-MB-435 cells xenografted in nude mouse assessed as reduction in tumor volume at 50 mg/kg, ip administered 3 times a week for 2 weeks and measured on day 14; assay type: functional, organism-based; details: time 14.0 day
Tubulin = Tubulin (Bos taurus, UniProt Q6B856+Q862L2+Q862F3); experiment: Inhibition of bovine brain tubulin assembly; assay type: tissue-based

| SMILES | IC50 (SK-OV-3 [1]) [nM] | IC50 (SK-OV-3 [2]) [nM] | IC50 (HeLa [3]) [nM] | IC50 (HeLa [4]) [nM] | inhibition (Tubulin (Bos taurus)) [%] | EC50 [6] [nM] | IC50 (MDA-MB-435 [7]) [nM] | IC50 (Tubulin) [nM] | Selectivity ratio [5] | Activity (MDA-MB-435 [8]) | Activity (MDA-MB-435 [9]) | Activity (MDA-MB-435 [10]) | Activity (MDA-MB-435 [11]) |
| --- | --- | --- | --- | --- | --- | --- | --- | --- | --- | --- | --- | --- | --- |
| Cc1nc(N)c(Cl)c(N(C)c2ccc3c(c2)CCO3)n1 | 1050 | 742 | 415 | 490 | 60 | 9200 | 620 | – | 15 | – | – | – | – |
| COc1ccc(Nc2nc(C)nc(N)c2Cl)cc1 | – | – | – | – | – | > 10000 | – | – | – | – | – | – | – |
| COc1ccc(N(C)c2nc(C)nc(NCc3ccccc3)c2Cl)cc1 | – | – | – | – | 14 | > 10000 | – | – | – | – | – | – | – |
| COc1ccc(N(C)c2nc(C)nc(NC(C)=O)c2Cl)cc1 | – | – | – | – | – | > 15000 | 3700 | – | – | – | – | – | – |
| CC(=O)O[C@H]1C(=O)[C@@]2(C)[C@H]([C@H](OC(=O)c3ccccc3)[C@]3(O)C[C@H](OC(=O)[C@H](O)[C@@H](NC(=O)c4ccccc4)c4ccccc4)C(C)=C1C3(C)C)[C@]1(OC(C)=O)CO[C@@H]1C[C@@H]2O [PACLITAXEL] | – | 5 | – | – | – | – | – | – | – | inactive | Active | – | – |
| COc1ccc(N(C)c2nc(C)nc(N)c2C)cc1 | > 500 | 312 | 250 | 229 | 45 | > 8000 | 206 | – | >39 | – | – | – | – |
| CSc1ccc(N(C)c2nc(C)nc(N)c2Cl)cc1 | – | 277 | 163 | 158 | 71 | 3300 | 140 | – | – | – | – | – | – |
| COc1ccc(N(C)c2nc(C)nc(NC(C)C)c2Cl)cc1 | 1600 | 1400 | 1000 | 800 | – | 7400 | 685 | – | 11 | – | – | – | – |
| COc1cccc(N(C)c2nc(C)nc(N)c2Cl)c1 | – | – | – | – | – | > 10000 | – | – | – | – | – | – | – |
| COc1ccc(/C=C\c2cc(OC)c(OC)c(OC)c2)cc1O [COMBRETASTATIN A4] | – | – | – | – | – | 9.8 | – | – | – | – | – | – | – |
| COc1ccc(N(C)c2nc(C)nc3[nH]ccc23)cc1 | – | – | – | – | 70 | 5800 | – | 2600 | 32 | – | – | – | – |
| COc1ccc(N(C)c2nc(C)nc(N)c2Cl)cc1 | 180 | 133 | 112 | 86.3 | 76 | 1500 | 71.3 | – | 21 | – | – | – | – |
| CNc1nc(C)nc(N(C)c2ccc(OC)cc2)c1Cl | 169 | 118 | 107 | 87.6 | 68 | 2100 | 103 | – | 20 | – | – | – | – |
| COc1ccc2c(c1)CCCN2c1nc(C)nc(NC(=O)C(C)(C)C)c1Cl | – | 3300 | 2600 | 2600 | – | > 10000 | 2100 | – | – | – | – | – | – |

Continued by falling EC50 [6], values first:

| IC50 (SK-OV-3 [1]) [nM] | IC50 (SK-OV-3 [2]) [nM] | IC50 (HeLa [3]) [nM] | IC50 (HeLa [4]) [nM] | inhibition (Tubulin (Bos taurus)) [%] | EC50 [6] [nM] | IC50 (MDA-MB-435 [7]) [nM] | IC50 (Tubulin) [nM] | SMILES | Selectivity ratio [5] | Activity (MDA-MB-435 [8]) | Activity (MDA-MB-435 [9]) | Activity (MDA-MB-435 [10]) | Activity (MDA-MB-435 [11]) |
| --- | --- | --- | --- | --- | --- | --- | --- | --- | --- | --- | --- | --- | --- |
| 576 | 459 | 279 | 312 | 61 | 1400 | 220 | – | COc1ccc2c(c1)CCCN2c1nc(C)nc(N)c1Cl | 6.5 | – | – | – | – |
| 193 | 64.7 | 70.2 | 67.1 | 74 | 831 | 56.1 | – | COc1cccc2cc(N(C)c3nc(C)nc(N)c3Cl)ccc12 | 15 | – | – | – | – |
| 165 | 122 | 105 | 66.2 | 84 | 432 | 84.4 | – | CCCCNc1nc(C)nc(N(C)c2ccc(OC)cc2)c1Cl | 5 | – | – | – | – |
| 117 | 107 | 104 | 96.7 | 57 | 394 | 78.1 | – | COc1ccc(N(C)c2nc(C)nc(NCC(C)C)c2Cl)cc1 | 5 | – | – | – | – |
| 93.5 | 77.9 | 61.7 | 41.8 | 74 | 305 | 50.4 | – | CCNc1nc(C)nc(N(C)c2ccc(OC)cc2)c1Cl | 6 | – | – | – | – |
| 362 | 227 | 234 | 368 | 61 | 260 | 221 | – | CCCNc1nc(C)nc(N(C)c2ccc3c(OC)cccc3c2)c1Cl | 1.2 | – | – | – | – |
| 39.2 | 34.2 | 33.8 | 27.9 | 82 | 123 | 24.4 | – | CCCNc1nc(C)nc(N(C)c2ccc(OC)cc2)c1Cl | 5 | – | – | inactive | Active |
